Experimental data reported in US20230033360A1, “COMPOUNDS AS CD73 INHIBITORS” (BioArdis LLC, priority 2019, published 2023).
pIC50: −log10 of the molar value.

target: T1, Recombinant Human 5′-Nucleotidase (CD73) (Homo sapiens, UniProt P21589); test: CD73 Enzyme Assay (PiColorLock inorganic phosphate detection, AMP substrate); format: biochemical; conditions: human CD73 0.5 nM, AMP 30 μM, 20 min at 37° C., absorbance 635 nm; read-out: Potency (IC50)
T1 construct: CHO derived CD73 (Trp27-Lys547), with a C-terminal 6-His tag; 6-His (C); purchased R&D 5795-EN; host or cells: CHO
T1 sequence (P21589 27-547): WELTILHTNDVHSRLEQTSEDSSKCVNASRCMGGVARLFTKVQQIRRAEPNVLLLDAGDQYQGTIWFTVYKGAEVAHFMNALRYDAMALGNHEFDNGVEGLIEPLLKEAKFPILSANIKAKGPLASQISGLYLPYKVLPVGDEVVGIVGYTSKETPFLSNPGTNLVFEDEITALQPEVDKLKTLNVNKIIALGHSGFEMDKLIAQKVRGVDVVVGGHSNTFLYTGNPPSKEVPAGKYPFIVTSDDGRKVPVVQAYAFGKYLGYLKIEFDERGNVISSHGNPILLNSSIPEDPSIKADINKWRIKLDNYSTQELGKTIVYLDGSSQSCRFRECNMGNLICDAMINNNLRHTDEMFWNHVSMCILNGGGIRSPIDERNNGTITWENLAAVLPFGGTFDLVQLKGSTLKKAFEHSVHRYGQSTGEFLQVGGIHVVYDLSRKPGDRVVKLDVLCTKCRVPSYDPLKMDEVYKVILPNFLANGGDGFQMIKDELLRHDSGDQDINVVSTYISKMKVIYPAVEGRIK
From the text: Soluble recombinant CD73 catalyzes the conversion of adenosine monophosphate (AMP) to adenosine and inorganic phosphate. The phosphate detection reagent, PiColorLock™ (Innova Bioscience, Cat #303-0125) is based on the change in absorbance of the dye malachite green in the presence of inorganic phosphate (Pi) and this property can be exploited to measure any enzyme that generates Pi. Recombinant Human 5′-Nucleotidase (CD73) (R&D #5795-EN, CHO derived CD73 (Trp27-Lys547), with a C-terminal 6-His tag) was used in the enzymatic assay. This assay, run in a 384-well plate format (Corning® NBS™ 384 well plates, Cat #3640), is a generic method for measuring inorganic phosphate. The basic assay procedure involves two steps: 1) Enzyme reaction: The CD73 enzyme (R&D #5795-EN) is incubated in the presence or absence of compounds. AMP (sigma, cat #01930) is added to start the […] reaction. 2) Detection step: Gold mix is added to the assay system, then stabilizers are added. After incubation the absorbance of the solution is read at OD 635 nm. The recorded OD signal is proportional to the enzyme activity.
Briefly, 25 μl human CD73 (0.5 nM final concentration) in the enzymatic buffer solutions (20 mM Tris, 25 mM NaCl, 1 mM MgCl2, pH 7.5, 0.005% Tween-20) were mixed with various concentrations of the test compound (dissolved in 100% DMSO). These solutions were incubated for 15 min at 25° C., and subsequently 25 μl AMP (30 μM final concentration) was added to start the reaction. The final reaction mixture of enzyme-substrate-compound was incubated for 20 min at 37° C. Meanwhile ‘Gold mix’ was prepared shortly before use by adding 1/100 vol. of accelerator to the PiColorLock™ Gold reagent. 12 μL/well of the ‘Gold mix’ was added to assay plate containing 50 μL enzyme reaction buffer and incubated at 25° C. for 5 min. 5 μL/well stabilizer was added to the assay plate and incubated at 25° C. for 30 min. The absorbance of the well solutions was measured at 635 nm on a Spark 10M instrument (TECAN).
The percent (%) inhibition at each concentration of a compound was calculated relative to the […] value in the Max and Min control wells contained within each assay plate. The Max control wells contained enzyme and substrate as 0% inhibition, and the Min control wells only contained substrate without enzyme as 100% inhibition. The concentrations and percent inhibition values for a test compound are plotted and the concentration of the compound required to achieve 50% inhibition (IC50) was determined with a four-parameter logistic dose response equation.

| Structure (SMILES) | pIC50 |
| --- | --- |
| O=P(O)(O)CP(=O)(O)OC[C@H]1O[C@@H](c2cnc3c(NC4CCCC4)cc(Cl)nn23)[C@H](O)[C@@H]1O [Example S1, (((((2R,3S,4R,5S)-5-(6-chloro-8-(cyclopentylamino)imidazo[1,2-b]pyridazin-3-yl)-3,4-dihydroxytetrahydrofuran-2-yl)methoxy)(hydroxy)phosphoryl)methyl)phosphonic acid] | 8.00 to 9.00 |
| C[C@H](Nc1cc(Cl)nn2c([C@@H]3O[C@H](COP(=O)(O)CP(=O)(O)O)[C@@H](O)[C@H]3O)cnc12)c1ccccc1F [Example S2, [({[(2R,3S,4R,5S)-5-(6-chloro-8-{[(1S)-1-(2-fluorophenyl)ethyl]amino}imidazo[1,2-b]pyridazin-3-yl)-3,4-dihydroxyoxolan-2-yl]methoxy}(hydroxy)phosphoryl)methyl]phosphonic acid] | 8.00 to 9.00 |
| O=P(O)(O)CP(=O)(O)OC[C@H]1O[C@@H](c2cnc3c(N4CCC[C@H]4c4ccccc4)cc(Cl)nn23)[C@H](O)[C@@H]1O [Example S3, (((((2R,3S,4R,5S)-5-(6-chloro-8-((S)-2-phenylpyrrolidin-1-yl)imidazo[1,2-b]pyridazin-3-yl)-3,4-dihydroxytetrahydrofuran-2-yl)methoxy)(hydroxy)phosphoryl)methyl)phosphonic acid] | 8.00 to 9.00 |
| O=P(O)(O)CP(=O)(O)OC[C@H]1O[C@@H](c2cnc3c(N4CC5CCCC5C4)cc(Cl)nn23)[C@H](O)[C@@H]1O (stereo partly drawn) [Example S4, (((((2R,3S,4R,5S)-5-(6-chloro-8-(hexahydrocyclopenta[c]pyrrol-2 (1H)-yl)imidazo[1,2-b]pyridazin-3-yl)-3,4-dihydroxytetrahydrofuran-2-yl)methoxy)(hydroxy)phosphoryl)methyl) phosphonic acid] | > 9.00 |
| O=P(O)(O)CP(=O)(O)OC[C@H]1O[C@@H](c2cnc3c(NC4CCCCC4)cc(Cl)nn23)[C@H](O)[C@@H]1O [Example S5, (((((2R,3S,4R,5S)-5-(6-chloro-8-(cyclohexylamino)imidazo[1,2-b]pyridazin-3-yl)-3,4-dihydroxytetrahydrofuran-2-yl)methoxy)(hydroxy)phosphoryl)methyl)phosphonic acid] | 8.00 to 9.00 |
| O=P(O)(O)CP(=O)(O)OC[C@H]1O[C@@H](c2cnc3c(NC4CC5CCC4C5)cc(Cl)nn23)[C@H](O)[C@@H]1O (stereo partly drawn) [Example S6, (((((2R,3S,4R,5S)-5-(8-(bicyclo[2.2.1]heptan-2-ylamino)-6-chloroimidazo[1,2-b]pyridazin-3-yl)-3,4-dihydroxytetrahydrofuran-2-yl)methoxy)(hydroxy)phosphoryl)methyl)phosphonic acid] | 8.00 to 9.00 |
| O=P(O)(O)CP(=O)(O)OC[C@H]1O[C@@H](c2ncc3c(NC4CCCC4)cc(Cl)nn23)[C@H](O)[C@@H]1O [Example S7, (((((2R,3S,4R,5S)-5-(2-chloro-4-(cyclopentylamino)imidazo[1,5-b]pyridazin-7-yl)-3,4-dihydroxytetrahydrofuran-2-yl)methoxy)(hydroxy)phosphoryl)methyl)phosphonic acid] | 8.00 to 9.00 |
| O=P(O)(O)CP(=O)(O)OC[C@H]1O[C@@H](c2ncc3c(N4CCC[C@H]4c4ccccc4)cc(Cl)nn23)[C@H](O)[C@@H]1O [Example S8, (((((2R,3S,4R,5S)-5-(2-chloro-4-((S)-2-phenylpyrrolidin-1-yl)imidazo[1,5-b]pyridazin-7-yl)-3,4-dihydroxytetrahydrofuran-2-yl)methoxy)(hydroxy)phosphoryl)methyl)phosphonic acid] | 8.00 to 9.00 |
| O=P(O)(O)CP(=O)(O)OC[C@H]1O[C@@H](c2ncc3c(N4CC5CCCC5C4)cc(Cl)nn23)[C@H](O)[C@@H]1O (stereo partly drawn) [Example S9, [({[(2R,3S,4R,5S)-5-(2-chloro-4-{hexahydro-1H-cyclopenta[c]pyrrol-2-yl}imidazo[1,5-b]pyridazin-7-yl)-3,4-dihydroxyoxolan-2-yl]methoxy}(hydroxy)phosphoryl)methyl]phosphonic acid] | > 9.00 |
| O=P(O)(O)CP(=O)(O)OC[C@H]1O[C@@H](c2csc3c(NC4CCCC4)nc(Cl)nc23)[C@H](O)[C@@H]1O [Example S10, (((((2R,3S,4R,5S)-5-(2-chloro-4-(cyclopentylamino)thieno[3,2-d]pyrimidin-7-yl)-3,4-dihydroxytetrahydrofuran-2-yl)methoxy)(hydroxy)phosphoryl)methyl)phosphonic acid] | > 9.00 |
| O=P(O)(O)CP(=O)(O)OC[C@H]1O[C@H](c2csc3c(NC4CCCC4)nc(Cl)nc23)[C@H](O)[C@@H]1O [Example S11] | 7.00 to 8.00 |
| O=P(O)(O)CP(=O)(O)OC[C@H]1OC(c2cnc3c(NC4CCOC4)cc(Cl)nn23)[C@H](O)[C@@H]1O (stereo partly drawn) [Example S12, (((((2R,3S,4R)-5-(6-chloro-8-((tetrahydrofuran-3-yl)amino)imidazo[1,2-b]pyridazin-3-yl)-3,4-dihydroxytetrahydrofuran-2-yl)methoxy)(hydroxy)phosphoryl)methyl)phosphonic acid] | 8.00 to 9.00 |
| O=P(O)(O)CP(=O)(O)OC[C@H]1OC(c2cnc3c(NC4CCC(F)(F)C4)cc(Cl)nn23)[C@H](O)[C@@H]1O (stereo partly drawn) [Example S13, (((((2R,3S,4R)-5-(6-chloro-8-((3,3-difluorocyclopentyl)amino)imidazo[1,2-b]pyridazin-3-yl)-3,4-dihydroxytetrahydrofuran-2-yl)methoxy)(hydroxy)phosphoryl)methyl)phosphonic acid] | 8.00 to 9.00 |
| O=P(O)(O)CP(=O)(O)OC[C@H]1OC(c2cnc3c(NCc4ccccc4)cc(Cl)nn23)[C@H](O)[C@@H]1O (stereo partly drawn) [Example S14, (((((2R,3S,4R)-5-(8-(benzylamino)-6-chloroimidazo[1,2-b]pyridazin-3-yl)-3,4-dihydroxytetrahydrofuran-2-yl)methoxy)(hydroxy)phosphoryl)methyl)phosphonic acid] | 8.00 to 9.00 |
| O=P(O)(O)CP(=O)(O)OC[C@H]1OC(c2cnc3c(NCc4ccccc4Cl)cc(Cl)nn23)[C@H](O)[C@@H]1O (stereo partly drawn) [Example S15, (((((2R,3S,4R)-5-(6-chloro-8-((2-chlorobenzyl)amino)imidazo[1,2-b]pyridazin-3-yl)-3,4-dihydroxytetrahydrofuran-2-yl)methoxy)(hydroxy)phosphoryl)methyl)phosphonic acid] | 8.00 to 9.00 |
| C[C@H](Nc1cc(Cl)nn2c(C3O[C@H](COP(=O)(O)CP(=O)(O)O)[C@@H](O)[C@H]3O)cnc12)c1cccc(F)c1 (stereo partly drawn) [Example S16, (((((2R,3S,4R)-5-(6-chloro-8-(((S)-1-(3-fluorophenyl)ethyl)amino)imidazo[1,2-b]pyridazin-3-yl)-3,4-dihydroxytetrahydrofuran-2-yl)methoxy)(hydroxy)phosphoryl)methyl)phosphonic acid] | 8.00 to 9.00 |
| C[C@H](Nc1cc(Cl)nn2c(C3O[C@H](COP(=O)(O)CP(=O)(O)O)[C@@H](O)[C@H]3O)cnc12)c1ccc(F)cc1 (stereo partly drawn) [Example S17, (((((2R,3S,4R)-5-(6-chloro-8-(((S)-1-(4-fluorophenyl)ethyl)amino)imidazo[1,2-b]pyridazin-3-yl)-3,4-dihydroxytetrahydrofuran-2-yl)methoxy)(hydroxy)phosphoryl)methyl)phosphonic acid] | > 9.00 |
| C[C@H](Nc1cc(Cl)nn2c(C3O[C@H](COP(=O)(O)CP(=O)(O)O)[C@@H](O)[C@H]3O)cnc12)c1ccccc1 (stereo partly drawn) [Example S18, (((((2R,3S,4R)-5-(6-chloro-8-(((S)-1-phenylethyl)amino)imidazo[1,2-b]pyridazin-3-yl)-3,4-dihydroxytetrahydrofuran-2-yl)methoxy)(hydroxy)phosphoryl)methyl)phosphonic acid] | 8.00 to 9.00 |
